Literature values as cited in US20170239312A1, “WEIGHT MANAGEMENT SYSTEMS AND RELATED METHODS” (priority 2013, published 2017).

Legend:
[1] = mice, high fat diet, 10 weeks
[2] = fed capsaicin versus saline (control group)
[3] = 50-200 mg/day
[4] = caffeine alone
[5] = obese rats, 10 mg/kg-body weight
[6] = system: 3T3-L1 pre-adipocytes; details: dose- and time-dependent

Compound: fucoxanthin
- Body weight and adipose tissue [1]: significant decrease in body weight and adipose tissue

Compound: COc1cc(CNC(=O)CCCC/C=C/C(C)C)ccc1O [capsaicin]
- Decrease in body weight [2]: 8%

Compound: CCNC(=O)CC[C@H](N)C(=O)O [theanine]
- Time to sense of relaxation [3]: 30 to 40 min

Compound: Cn1c(=O)c2c(ncn2C)n(C)c1=O [Caffeine]
- Effect on thermogenesis or fat oxidation [4]: no effect

Compound: O=c1c(O)c(-c2ccc(O)c(O)c2)oc2cc(O)cc(O)c12 [quercetin]
- Body weight gain [5]: reduced body weight gain
- Apoptosis (cell suicide) [6]: induced apoptosis
